Experiments:
crabgrass, Brazil = assay: Test F preemergence; assay type: in vivo, Digitaria horizontalis
Text: (§1) Seeds of plant species selected from corn (Zea mays), soybean (Glycine max), velvetleaf (Abutilon theophrasti), lambsquarters (Chenopodium album), wild poinsettia (Euphorbia heterophylla), pigweed, palmer (palmer pigweed, Amaranthus palmeri), common waterhemp (Amaranthus rudis), surinam grass (Brachiaria decumbens), large crabgrass (Digitaria sanguinalis), crabgrass, Brazil (Brazilian crabgrass, Digitaria horizontalis), fall panicum (Panicum dichotomiflorum), giant foxtail (Setaria faberii), green foxtail (Setaria viridis), goosegrass (Eleusine indica), johnsongrass (Sorghum halepense), common ragweed (Ambrosia elation), barnyardgrass (Echinochloa crus-galli), southern sandbur (Cenchrus echinatus), arrowleaf sida (Sida rhombifolia), Italian ryegrass (Lolium multiflorum), dayflower, VA (Virginia (VA) dayflower, Commelina virginica), field bindweed (Convolvulus arvensis), cocklebur (common cocklebur, Xanthium strumarium), morningglory (Ipomoea coccinea), nightshade (eastern black nightshade, Solanum ptycanthum), kochia (Kochia scoparia), yellow nutsedge (Cyperus esculentus), and hairy beggarticks (Bidens pilosa), were planted into a silt loam soil and treated preemergence with test chemicals formulated in a non-phytotoxic solvent mixture which included a surfactant.
(§2) At the same time, plants from these crop and weed species and also horseweed (Canada horseweed, Conyza canadensis), smartweed (ladysthumb smartweed, Polygonum persicaria), waterhemp_RES1, (ALS & Triazine resistant common waterhemp, Amaranthus rudis), and waterhemp_RES2, (ALS & HPPD resistant common waterhemp, Amaranthus rudis) were treated with postemergence applications of test chemicals formulated in the same manner. Plants ranged in height from 2 to 18 cm for postemergence treatments (1- to 4-leaf stage). Treated plants and controls were maintained in a greenhouse for 14 to 21 days, after which time all species were compared to controls and visually evaluated. Plant response ratings, summarized in Table F, are based on a scale of 0 to 100 where 0 is no effect and 100 is complete control. A dash (-) response means no test result.

morningglory = assay: Test F preemergence; assay type: in vivo, Ipomoea coccinea
Method in brief: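 Plant response is scored by eye relative to controls on a 0 to 100 scale, where 100 means complete control. Preemergence applications were made to seeded silt loam; postemergence ones to seedlings 2 to 18 cm high. Greenhouse holding time was 14 to 21 days.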

bluegrass = assay: Test D postemergence; assay type: in vivo, Poa annua; conditions: scale 0 to 100
Method in brief: (§3)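 Formulation was a non-phytotoxic solvent mixture plus surfactant, applied either to soil at planting (silt loam, preemergence) or to foliage of 2–18 cm plants (postemergence). Visual evaluation versus controls followed at 14–21 days, scored 0–100.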

field poppy = assay: Test D postemergence; assay type: in vivo, Papaver rhoeas; conditions: scale 0 to 100
Text: (§4) Seeds of plant species selected from bluegrass (annual bluegrass, Poa annua), blackgrass (Alopecurus myosuroides), canarygrass (littleseed canarygrass, Phalaris minor), chickweed (common chickweed, Stellaria media), galium (catchweed bedstraw, Galium aparine), bromegrass, downy (downy bromegrass, Bromus tectorum), field poppy (Papaver rhoeas), field violet (Viola arvensis), foxtail, green (green foxtail, Setaria viridis), deadnettle (henbit deadnettle, Lamium amplexicaule), ryegrass, Italian (Italian ryegrass, Lolium multiflorum), kochia (Kochia scoparia), lambsquarters (Chenopodium album), oilseed rape (Brassica napus), pigweed (redroot pigweed, Amaranthus retroflexus), chamomile (scentless chamomile, Matricaria inodora), speedwell (bird's-eye speedwell, Veronica persica), barley, spring (spring barley, Hordeum vulgare), wheat, spring (spring wheat, Triticum aestivum), buckwheat, wild (wild buckwheat, Polygonum convolvulus), mustard, wild (wild mustard, Sinapis arvensis), oat, wild (wild oat, Avena fatua), radish, wild (wild radish, Raphanus raphanistrum), windgrass (Apera spica-venti), Russian thistle (Salsola kali), barley, winter (winter barley, Hordeum vulgare), and wheat, winter (winter wheat, Triticum aestivum) were planted into a silt loam soil and treated preemergence with test chemicals formulated in a non-phytotoxic solvent mixture which included a surfactant.
(§5) At the same time, these species were planted in pots containing Redi-Earth® planting medium (Scotts Company, 14111 Scottslawn Road, Marysville, Ohio 43041) comprising spaghnum peat moss, vermiculite, wetting agent and starter nutrients and treated with postemergence applications of the test chemicals formulated in the same manner. Plants ranged in height from 2 to 18 cm (1- to 4-leaf stage). Treated plants and controls were maintained in a controlled growth environment for 14 to 21 days after which time all species were compared to controls and visually evaluated. Plant response ratings, summarized in Table D, are based on a scale of 0 to 100 where 0 is no effect and 100 is complete control. A dash (-) response means no test result.

lambsquarters = assay: Test D preemergence; assay type: in vivo, Chenopodium album; conditions: scale 0 to 100
Method in brief: as §3

kochia [1] = assay: Test F preemergence; assay type: in vivo, Kochia scoparia
Text: as §1, §2

kochia [2] = assay: Test D preemergence; assay type: in vivo, Kochia scoparia; conditions: scale 0 to 100
Method in brief: as §3

deadnettle = assay: Test D postemergence; assay type: in vivo, Lamium amplexicaule; conditions: scale 0 to 100
Method in brief: as §3

kochia [3] = assay: Test D postemergence; assay type: in vivo, Kochia scoparia; conditions: scale 0 to 100
Method in brief: as §3

barley, spring = assay: Test D preemergence; assay type: in vivo, Hordeum vulgare; conditions: scale 0 to 100
Text: as §4, §5

barley, winter = assay: Test D preemergence; assay type: in vivo, Hordeum vulgare; conditions: scale 0 to 100
Text: as §4, §5

speedwell = assay: Test D preemergence; assay type: in vivo, Veronica persica; conditions: scale 0 to 100
Text: as §4, §5

chamomile = assay: Test D postemergence; assay type: in vivo, Matricaria inodora; conditions: scale 0 to 100
Text: as §4, §5

field violet = assay: Test D preemergence; assay type: in vivo, Viola arvensis; conditions: scale 0 to 100
Text: as §4, §5

[4] = Preemergence, 31 g ai/ha, scale 0 to 100
[5] = Preemergence, 62 g ai/ha, scale 0 to 100
[6] = Preemergence, 125 g ai/ha, scale 0 to 100
[7] = preemergence, 8 g ai/ha, scale 0 to 100, 100 is complete control
[8] = preemergence, 16 g ai/ha, scale 0 to 100, 100 is complete control

CCc1cc(C(=O)NCC(F)(F)F)nn1Cc1ccnc(C(F)(F)F)c1 [Compound 78, 5-ethyl-N-(2,2,2-trifluoroethyl)-1-[[(2-trifluoromethyl)-4-pyridinyl]methyl]-1H-pyrazole-3-carboxamide]
50: Plant response rating, Barley, Winter (barley, winter; 62 g ai/ha) | Chamomile plant response rating (chamomile; postemergence, 62 g ai/ha)
55: Field Poppy plant response rating (field poppy; Postemergence, 31 g ai/ha)
15: Bluegrass plant response rating (bluegrass; Postemergence, 125 g ai/ha) | Deadnettle plant response rating (deadnettle; Postemergence, 31 g ai/ha)
85: Field Poppy plant response rating (field poppy; Postemergence, 250 g ai/ha)
0: Plant response rating, Morningglory (morningglory; [7])
95: Plant response rating, Lambsquarters (lambsquarters; 31 g ai/ha) | Plant response rating, Kochia (kochia [2]; 31 g ai/ha) | Plant response rating, Barley, Winter (barley, winter; 250 g ai/ha)
30: Plant response rating, Crabgrass, Brazil (crabgrass, Brazil; [7]) | Bluegrass plant response rating (bluegrass; Postemergence, 250 g ai/ha) | Chamomile plant response rating (chamomile; Postemergence, 31 g ai/ha)
65: Field Poppy plant response rating (field poppy; postemergence, 62 g ai/ha) | Plant response rating, Kochia (kochia [1]; [8]) | Plant response rating, Barley, Spring (barley, spring; 62 g ai/ha) | Plant response rating, Barley, Winter (barley, winter; 125 g ai/ha) | Chamomile plant response rating (chamomile; Postemergence, 125 g ai/ha)
80: Kochia plant response rating (kochia [3]; Postemergence, 125 g ai/ha) | Kochia plant response rating (kochia [3]; postemergence, 62 g ai/ha)
60: Deadnettle plant response rating (deadnettle; Postemergence, 250 g ai/ha)
40: Plant response rating, Morningglory (morningglory; [8]) | Plant response rating, Kochia (kochia [1]; [7])
70: Plant response rating, Crabgrass, Brazil (crabgrass, Brazil; [8]) | Field Poppy plant response rating (field poppy; Postemergence, 125 g ai/ha)
25: Plant response rating, Barley, Winter (barley, winter; 31 g ai/ha)
75: Kochia plant response rating (kochia [3]; Postemergence, 31 g ai/ha) | Kochia plant response rating (kochia [3]; Postemergence, 250 g ai/ha) | Chamomile plant response rating (chamomile; Postemergence, 250 g ai/ha)
20: Deadnettle plant response rating (deadnettle; postemergence, 62 g ai/ha) | Plant response rating, Barley, Spring (barley, spring; 31 g ai/ha)
35: Deadnettle plant response rating (deadnettle; Postemergence, 125 g ai/ha)
10: Bluegrass plant response rating (bluegrass; Postemergence, 31 g ai/ha) | Bluegrass plant response rating (bluegrass; postemergence, 62 g ai/ha)
100: Plant response rating, Crabgrass, Brazil (crabgrass, Brazil; [4]) | Plant response rating, Crabgrass, Brazil (crabgrass, Brazil; [5]) | Plant response rating, Crabgrass, Brazil (crabgrass, Brazil; [6]) | Plant response rating, Morningglory (morningglory; [4]) | Plant response rating, Morningglory (morningglory; [6]) | Plant response rating, Lambsquarters (lambsquarters; 62 g ai/ha) | Plant response rating, Lambsquarters (lambsquarters; 125 g ai/ha) | Plant response rating, Lambsquarters (lambsquarters; 250 g ai/ha) | Plant response rating, Kochia (kochia [1]; [4]) | Plant response rating, Kochia (kochia [1]; [5]) | Plant response rating, Kochia (kochia [1]; [6]) | Plant response rating, Kochia (kochia [2]; 62 g ai/ha) | Plant response rating, Kochia (kochia [2]; 125 g ai/ha) | Plant response rating, Kochia (kochia [2]; 250 g ai/ha) | Plant response rating, Barley, Spring (barley, spring; 250 g ai/ha) | Plant response rating, Speedwell (speedwell; 31 g ai/ha) | Plant response rating, Speedwell (speedwell; 62 g ai/ha) | Plant response rating, Speedwell (speedwell; 125 g ai/ha) | Plant response rating, Speedwell (speedwell; 250 g ai/ha) | Plant response rating, Field Violet (field violet; 31 g ai/ha) | Plant response rating, Field Violet (field violet; 62 g ai/ha) | Plant response rating, Field Violet (field violet; 125 g ai/ha) | Plant response rating, Field Violet (field violet; 250 g ai/ha)
90: Plant response rating, Morningglory (morningglory; [5]) | Plant response rating, Barley, Spring (barley, spring; 125 g ai/ha)

Source: patent publication US20150105252A1, “SUBSTITUTED PYRAZOLES AS HERBICIDES” (E I DU PONT DE NEMOURS AND COMPANY, priority 2013, published 2015)
